Laboratory results taken from patent US20040082477A1, “Pyrrolecarboxamides for the use as fungicdes” (priority 2001, published 2004).

Work on `Cn1cc(C(=O)Nc2ccccc2-c2ccc(Br)cc2)c(C(F)F)c1` [Compound 1.2, 1-methyl-4-difluoromethyl-1H-pyrrole-3-carboxylic acid (4′-bromobiphenyl-2-yl) amide] yielded a melting point of 166 to 167 °C.
